Reference: US20190365719A1, “COMBINATION TREATMENTS OF HSP90 INHIBITORS FOR ENHANCING TUMOR IMMUNOGENICITY AND METHODS OF USE THEREOF” (Massachusetts Institute of Technology, priority 2018, published 2019)

How the values were obtained:
[1] = test system: Ctrl and B2m KO MC38 cells; assay: Viability of Ctrl and B2m KO MC38 cells in culture, dye reduction assay; type: cell-based, mouse; details: 2-day exposure to increasing concentrations
Text: FIGS. 6A-B are graphs showing anti-tumor activity of low-dose HSP90i is dependent on functional MHC Class I expression. Ctrl or B2m KO cells were generated by CRISPR-Cas9 mediated gene editing, and B2m KO cells were confirmed to no longer express MHC-I on the cell surface. FIG. 6A is a line graph showing relative number of viable Ctrl and B2m KO cells measured by standard dye reduction assay following 2-day exposure to increasing concentrations of HSP90i; FIG. 6B is a line graph showing size in mm^3 of Ctrl or B2m KO MC38 tumors in mice treated with vehicle (Veh, solid lines) or 0.5 mg/kg/day HSP90i (dotted lines) over 25 days post implantation.
For CRISPR/Cas9-mediated disruption of B2m, pSpCas9-P2A-GFP plasmid (Addgene #48138) was modified with a control sgRNA sequence ([…]) or an sgRNA targeting B2m ([…]). Log phase MC38 cells were transfected with Ctrl or B2m plasmids using Lipofectamine 2000 (Invitrogen) according to manufacturer's instructions. 24 hours later, single GFP positive cells were sorted into 96-well plates to isolate individual MC38 clones with the desired modification. After 2 weeks, isolated clones were tested by western blot to confirm loss of B2m expression. Ctrl and B2m clones were then passaged through syngeneic mice (C57/B16) to increase the uniformity of tumor establishment and progression in subsequent experiments.

KP lung tumors = assay: Lung tumor burden in KP mouse model of NSCLC; type: in vivo; details: KP mice, 0.5 mg/kg/day in drinking water for 4 weeks
Text: A genetically engineered mouse model of non-small cell lung cancer (NSCLC) was used. Mice harboring a Cre-recombinase inducible oncogenic Kras, and a floxed p53 allele (KP) develop tumors following intratracheal administration of Cre recombinase. In addition, a hypermutant mouse model of NSCLC (KPM) was used in which mice have a floxed allele of the MutS homolog 2 (Msh2) gene, a critical component of DNA mismatch repair, in addition to the genetic modifications of the KP mouse model. These models enable the interrogation of Hsp90i strategies in a physiologically relevant NSCLC model with and without hypermutation.
KP and KPM mice were infected intratracheally with Adenovirus expressing Cre recombinase from an SPC promoter at a titer of 2×10^8 plaque forming units per mouse to initiate tumor formation. 8 weeks following tumor initiation, the cohort was randomized and vehicle (control) or Hsp90i (NVP-HSP990) was administered in the drinking water at a dose of 0.5 mg/kg/day for 4 weeks prior to analysis at 12 weeks post tumor induction.
Tumor burden was analyzed histologically on tumor sections stained with hemotoxylin and eosin (H&E) using standard protocols at the Koch Institute Histology Facility. Tumor burden was calculated by dividing the total area of tumor tissue over the total area of normal lung tissue present in each sample.

MC38 tumors = assay: Subcutaneous MC38 tumors in syngeneic C57Bl/6 mice, HSP90i in drinking water; type: in vivo
Protocol: All experiments involving mice were performed under a protocol approved by the MIT Institutional Animal Care and Use Committee. MC38 cells growing in log phase were harvested by incubation with trypsin, washed 3× in PBS, and implanted (1×10^5 cells/site) into the right inguinal region of 6-8 week old female C57B16 mice (Jackson Labs). Once palpable, tumors were monitored every other day via digital caliper measurements and volume calculated using the following formula: Length (mm)×Width (mm)×Width (mm)×[…]=tumor volume in mm^3. Mice were euthanized by CO2 inhalation, tumors were harvested and cut into thirds with a razor for histology, flow cytometry, and flash freezing in liquid N2 for RNA/protein isolation.
For oral dosing with HSP90i, the average water consumption of the mice was calculated by measuring water bottle weight before and after 72 hours of housing to determine the average consumption per mouse, per day. Across all experiments, C57Cl/6 mice consumed approximately 4 mL every day. Using these water consumption values, and mouse weight, a 4 mg/mL stock solution of NVP-HSP990 (in 100% PEG400) was diluted directly into the drinking water to achieve a target dose of 0.5 mg/kg/day. HSP990 treatment was begun 72 hours prior to implantation of MC38 cells to allow the drug to reach steady state level prior to tumor challenge.
Histology For histological sectioning, tumor tissue was fixed in 10% buffered formalin for 24 hours prior to transfer to 70% EtOH for storage until paraffin-embedding, sectioning and mounting on glass slides. For CD3 and CD8 staining, slides were dewaxed, and antigen retrieval was performed in citrate buffer (10 mM Citric acid, pH=6.0) and pressure-cooked. Slides were then cooled and washed in PBS+0.1% Tween-20 (PBST). Endogenous peroxidase activity was then blocked with Dako Dual Enzyme Block (Agilent Technologies) and endogenous proteins were blocked with 2.5% goat serum in PBST. Slides were then incubated with primary anti-CD8 antibody (1:400) overnight at 4° C. or anti-CD3 antibody (1:500) for 1 hr at 25° C. After incubation with primary antibody, slides were washed 3× with PBST, and then incubated with HRP-conjugated secondary antibody for 30 min at […]. Slides were then washed 3× with PBST prior to development with DAB substrate for 3-5 min until positive staining was observed.
For CD8 and CD3 quantification, slides were scanned with a Leica High Resolution slide scanner and images imported into Aperio eSlide Manager. Two independent sections from each tumor were outlined and CD3/CD8+ cells were identified and quantified using the Nuclear-ID-v1 Algorithm. Individual tumor values are the average of the two tumor sections.
For analysis of MHC Class I on MC38 tumors, mice were sacrificed with by CO2 inhalation, tumor tissue quickly dissected and placed on ice until processing by thorough mincing with a razor and filtration through a 70 μm cell strainer. Cells were then stained with H2-Kb antibody (1:400) or isotype control as described for cultured cells.
For analysis of tissues, samples (2.5-5.0 mm^3) were homogenized in 1 mL of Trizol (Molecular Research Center), phase separated with 200 μL chloroform, and precipitated with 100% isopropanol prior to resuspension in MilliQ H2O and quantification with Nanodrop. RNA was then processed as described above for qRT-PCR.

[2] = cited from earlier work
[3] = oral, once weekly; cited from earlier work
[4] = 0.5 mg/kg/day in drinking water, 18 days post implantation, C57Bl/6

**Q.** Which results are given for `COc1cccc(-c2cc(F)ccc2[C@H]2Cc3nc(N)nc(C)c3C(=O)N2)n1` [NVP-HSP990]?
**A.** sensitivity of Ctrl versus B2m KO MC38 cells in culture [1]: no difference in sensitivity; lung tumor burden versus vehicle (KP lung tumors): no significant difference; reduction in tumor mass (MC38 tumors; [4]): greater than 50%; reduction in tumor volume (MC38 tumors; [4]): greater than 50%; heat-shock response in tumors (qRT-PCR) (MC38 tumors; continuous low-dose administration): does not induce a heat-shock response; immune gene expression in MC38 tumor tissue (Nanostring) (MC38 tumors; low dose exposure): did not result in broad downregulation in immune gene expression; total number of CD3+ or CD8+ T-cells in the tumors (MC38 tumors; treated versus control mice): no significant difference; MHC Class I expression on the surface of dissociated MC38 tumor cells (MC38 tumors; tumors from treated mice versus vehicle): higher levels of MHC Class I expression; drug half-lives ([2]; both doses (50 mg and 2.5 mg)): 20 to 25 h; steady state drug concentration in plasma ([2]; oral dosing of 2.5 mg): 20 to 40 nM; peak plasma concentration ([2]; single oral dose of 2.5 mg, human): 34 nM; peak plasma drug concentration ([2]; single orally administered dose of 50 mg, human): 1.31 µM; single agent MTD/RP2D [3]: 50 mg
